We go through five molecules from patent publication US11529350B2, “Tyrosine kinase non-receptor 1 (TNK1) inhibitors and uses thereof” (Sumitomo Pharma Oncology, Inc., priority 2019, dated 2022).

One assay has as its system A549 cells. Kind of assay: Combination with bortezomib, A549 cell confluency (Incucyte). Type of assay: cell-based. Particulars: 1 nM alone, two independent experiments. As for the experimental part:
A549 cells were seeded in log phase (e.g., at 40-60% confluency) in a well plate. Drug treatments were: no drug treatment, DMSO, bortezomib at 50 nM, 10 nM, 5 nM, 2 nM or 1 nM, Example No. 13 at 10 nM, and bortezomib 50 nM, 10 nM, 5 nM, 2 nM or 1 nM combined with Example No. 13 at 10 nM. The DMSO concentrations were kept constant (including DMSO control) to control for any confounding DMSO toxicity.
Drug addition protocol: On day 1, cells were seeded at 60,000 cells/well, and incubated for 24 hours to allow adherence. On day 2, media was aspirated and replaced with 500 μl of the drug media preparations described below in correlating wells. The plates were placed in Incucyte for 7-14 days, and cell confluency was measured every 2 hours. […]

Assay [1] has as its system phospho-STAT5 in L540 cells. Description: In vitro pSTAT5 assay (ELISA) in L540 cells. Type of assay: cell-based. Particulars: Homo sapiens, L-540, 24 hours, normalized to cell viability, read-out: P-STAT5 Assay IC50. How it is done: The L540 cell line harbors a truncating mutation in the C-terminal regulatory region of the protein. As a consequence, TNK1 in L540 cells is constitutively active in phosphorylating key proteins, including STAT5. In TNK1 wild-type conditions (e.g., K562 CML cells), STAT5 phosphorylation is achieved in a TNK1-independent fashion. As such, reductions in phospho-STAT5 signal specific to the L540 cells are a good readout of TNK1 inhibitor function.
Methods: The in vitro pSTAT5 assay was performed with STAT5 AB (pY964/699) SimpleStep ELISA Kit (Abcam No. ab176656) according to the manufacturer's protocol. Briefly, L540 cells were grown in RPMI1640 media under standard culture conditions (10% FBS with penicillin/streptomycin). To assess test compound effects, cells were plated in 96 well plates (250,000 cells/mL) and allowed to grow overnight. Cells were subsequently treated with varying concentrations of test compound for 24 hours, before being harvested and interrogated with the STAT5 AB (pY964/699) SimpleStep ELISA Kit according to the manufacturer's protocol. Phospho-STAT5 signal was normalized to cell viability, as assessed by the CellTiter-Glo assay (Promega, Cat. No. G7570) on treated cells. TNK1 inhibitor IC50s were determined using Graphpad Prism software on normalized phospho-STAT5 measurements.
(In general: In an ELISA, binding on a coated surface is turned into a signal by an enzyme label.)

Assay [2] has as its target T1, TNK1 (Homo sapiens, UniProt Q13470).
T1 sequence (Q13470 1-666): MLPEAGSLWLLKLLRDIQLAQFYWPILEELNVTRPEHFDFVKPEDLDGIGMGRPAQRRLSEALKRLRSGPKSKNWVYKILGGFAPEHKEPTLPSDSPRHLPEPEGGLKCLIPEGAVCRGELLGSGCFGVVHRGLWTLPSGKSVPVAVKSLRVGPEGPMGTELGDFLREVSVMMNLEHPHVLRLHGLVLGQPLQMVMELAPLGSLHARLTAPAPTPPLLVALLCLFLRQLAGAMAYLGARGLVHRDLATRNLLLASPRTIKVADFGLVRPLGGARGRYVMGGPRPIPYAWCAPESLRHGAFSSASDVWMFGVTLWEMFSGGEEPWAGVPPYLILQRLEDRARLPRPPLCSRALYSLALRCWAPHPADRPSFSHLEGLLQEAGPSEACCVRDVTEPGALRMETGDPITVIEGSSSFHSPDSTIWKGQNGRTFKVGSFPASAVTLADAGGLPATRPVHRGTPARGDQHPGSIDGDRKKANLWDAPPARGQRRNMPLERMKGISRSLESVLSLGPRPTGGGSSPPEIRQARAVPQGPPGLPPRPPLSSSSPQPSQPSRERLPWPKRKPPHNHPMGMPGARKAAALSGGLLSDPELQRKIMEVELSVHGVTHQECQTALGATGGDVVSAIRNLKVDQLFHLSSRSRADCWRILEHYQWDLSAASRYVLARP
Kind of assay: TNK1 NanoBRET target engagement assay (HEK293). Type of assay: cell-based. Set-up: host or cells: HEK293. Particulars: HEK293 cells, 2 hours; read-out: NanoBRET TE Assay (HEK293) IC50. The source says:
The NanoBRET target engagement (TE) assay (Promega, Madison, Wis.) enables the interrogation of the displacement of a tracer compound in the active site of a recombinant kinase by a test compound in the intracellular setting. The assay enables simultaneous testing of permeability, solubility, and kinase inhibition, and tests the specific interaction of test agents with a kinase of interest, here, TNK1. The assay is based on the principle of bioluminescence resonance energy transfer (BRET). In the assay, a plasmid-encoded, luciferase-tagged form of TNK1 is transfected into cells. A tracer compound is tagged with a fluorophore that fluoresces when bound to the TNK1 protein. Readout is luminescence and fluorescence. Test compounds show activity by displacing the tracer, thus disrupting BRET.
Methods: The TNK1 NanoBRET TE assays were performed according to the manufacturer's protocol. Briefly, Nanoluc-TNK1 Fusion Vector (Promega, Madison, Wis., Cat. No. NV2181) was transfected into HEK293 cells in bulk (8×10^6 cells in a T175 flask). Up to 30 hours post-transfection, cells were harvested by trypsinization, resuspended at a concentration of 2×10^5 cells/mL, and seeded in 96-well plates at 85 μL/well. A test compound and the K5 tracer were added to each well, and the cells were incubated for 2 hours. Luminescence ([…]) and fluorescence ([…]) were measured to determine a BRET ratio. IC50 values were determined from the BRET ratios using the Graphpad Prism software (GraphPad Software, San Diego, Calif.).

For assay [3], the target named is T1, TNK1. Kind of assay: RBC HotSpot Kinase Assay. Type of assay: biochemical. Further details: purchased Reaction Biology Corp., Malvern, Pa. Particulars: ATP 10 μM. How it is done: The RBC HotSpot Kinase assay (Reaction Biology Corp., Malvern, Pa.) was used to evaluate the ability of test compounds to modulate (e.g., inhibit) the enzymatic activity of human TNK1 (UniProt Accession No. Q13470) in the following reaction:
Reagent: Base Reaction buffer; 20 mM Hepes (pH 7.5), 10 mM MgCl2, 1 mM EGTA, 0.02% Brij35, 0.02 mg/ml BSA, 0.1 mM Na3VO4, 2 mM DTT, 1% DMSO. Required cofactors were added individually to each kinase reaction.
Compound handling: Test compounds were dissolved in 100% DMSO to specific concentration. The serial dilution was conducted by Integra Viaflo Assist in DMSO.
1. Prepared substrate (peptide substrate, poly[Glu:Tyr] (4:1), 0.2 mg/ml; ATP 10 μM) in freshly prepared Reaction Buffer;
2. Delivered any required cofactors to the substrate solution;
3. Delivered kinase (TNK1) into the substrate solution and gently mixed;
4. Delivered compounds in 100% DMSO into the kinase reaction mixture by Acoustic technology (Echo550; nanoliter range), incubated for 20 minutes at room temperature;
5. Delivered ^33P-ATP (specific activity 10 μCi/μl) into the reaction mixture to initiate the reaction;
6. Incubated for 2 hours at room temperature;
7. Detected radioactivity by filter-binding method;
8. Kinase activity data were expressed as the percent remaining kinase activity in test samples compared to vehicle (dimethyl sulfoxide) reactions. IC50 values and curve fits were obtained using Prism (GraphPad Software).

Molecules are shown by their SMILES.

Consider `CC(C)C[C@H](NC(=O)[C@H](Cc1ccccc1)NC(=O)c1cnccn1)B(O)O` [Bortezomib, bortezomib, reference compound], for which the “cell growth inhibition, alone” value in the assay on A549 cells is recorded as “no inhibition of cell growth”.

In general, IC50 refers to the concentration needed to halve the response being measured. On to `COc1cc(N2CCN(C)CC2)c(Cl)cc1Nc1ncc(Cl)c(Nc2cccnc2N2CCCCC2=O)n1` [Example No. 19, 1-(3-((5-chloro-2-((5-chloro-2-methoxy-4-(4-methylpiperazin-1-yl)phenyl)amino)pyrimidin-4-yl)amino)pyridin-2-yl)piperidin-2-one], for which the IC50 in assay [1] was 0.005 to 0.05 µM; on TNK1 [2], 0.15 to 1 µM; on TNK1 [3], 0.005 to 0.015 µM.

`COc1cc(N2CCN(C)CC2)ccc1Nc1ncc(Cl)c(Nc2cccnc2N(C)C)n1` [Example No. 16, 5-chloro-N4-(2-(dimethylamino)pyridin-3-yl)-N2-(2-methoxy-4-(4-methylpiperazin-1-yl)phenyl)pyrimidine-2,4-diamine]: the IC50 in assay [1] was 0.005 to 0.05 µM; on TNK1 [2] it was 0.15 to 1 µM; against TNK1 [3], less than 0.005 µM.

Turning to `COc1cc(N2CCN(C)CC2)c(C)cc1Nc1ncc(I)c(Nc2cccnc2N(C)C)n1` [compound 11, N^4-(2-(dimethylamino)pyridin-3-yl)-5-iodo-N^2-(2-methoxy-5-methyl-4-(4-methylpiperazin-1-yl)phenyl)pyrimidine-2,4-diamine], the figures for the IC50 (in assay [1]; at TNK1 [2]; at TNK1 [3]) were 0.005 to 0.05 µM, 0.15 to 1 µM and less than 0.005 µM, respectively.

Take `COc1cc(N2CCN(C)CC2)c(C)cc1Nc1ncc(Cl)c(Nc2cccnc2N(C)C)n1` [compound 6, 5-chloro-N^4-(2-(dimethylamino)pyridin-3-yl)-N^2-(2-methoxy-5-methyl-4-(4-methylpiperazin-1-yl)phenyl)pyrimidine-2,4-diamine]: the IC50 was 0.005 to 0.05 µM in assay [1], 0.15 to 1 µM at TNK1 [2] and less than 0.005 µM on TNK1 [3].
